Results from patent publication US12570988B2, “Aptamers that bind thiamine analogs and derivatives” (MeiraGTx Gene Regulation Limited, priority 2020, dated 2026).
Numbering of substitutions follows the chain as printed.

Columns and labels:
[1] = system: riboswitch TPPz (A. tabrizica thiC TPP aptamer); experiment: Luciferase reporter with TPPz riboswitch in HEK 293 cells; format: cell-based, human; details: FIG. 1
Description: (§1) Riboswitch constructs: Aptamers were synthesized by Integrated DNA Technologies, Inc. and Golden Gate cloning strategy (New England Biolabs, NEB) was used to clone the synthesized aptamer sequences into intron-exon-intron cassette to replace the guanine aptamer in the G17 riboswitch cassette (see SEQ ID NO: 15 recited in WO 2016/126747, which is incorporated herein in its entirety) with a TPP aptamer from the Alishewanella tabrizica thiC gene (Microbiol Res. 2017 January; 195:71-80) or a TPP aptamer from the Escherichia coli thiM gene (Structure. 2006 September; 14(9):1459-68), generating riboswitch TPPz and TPPm, respectively.
(§2) Transfection: 3.5×10^4 human embryonic kidney (HEK) 293 cells were plated in a 96-well flat bottom plate the day before transfection. Plasmid DNA (500 ng) was added to a tube or a 96-well U-bottom plate. Separately, TransIT-293 reagent (Mirus; 1.4 μL) was added to 50 μL Optimem I media (Life Technologies) and allowed to sit for 5 minutes at room temperature (RT). Then, 50 μL of this diluted transfection reagent was added to the DNA, mixed, and incubated at RT for 20 min. Finally, 7 μL of this solution was added to a well of cells in the 96-well plate. Four hours after transfection, medium containing transfection solution was replaced by medium containing either TPP, fursultiamine, prosultiamine, bisbentiamine, beclotiamine hydrochloride, or sulbutiamine as aptamer inducers.
(§3) Firefly luciferase assay of cultured cells: Twenty-four hours after media change, plates were removed from the incubator, and equilibrated to RT for several minutes on a lab bench, then aspirated. Glo-lysis buffer (Promega, 100 μL, RT) was added, and the plates allowed to remain at RT for at least 5 minutes. Then, the well contents were mixed by 50 μL trituration, and 20 μL of each sample was mixed with 20 μL of bright-glo reagent (Promega) that had been diluted to 10% in glo-lysis buffer. 96 wells were spaced on an opaque white 384-well plate. Following a 5 min incubation at RT, luminescence was measured using a Tecan machine with 500 ms read time. The luciferase activity was expressed as mean arbitrary light units (ALU)±S.D., and fold induction was calculated as the quotient of the luciferase activity obtained from cells with TPP or analog treatment divided by the luciferase activity obtained from cells without TPP or analog treatment.

[2] = system: riboswitch TPPm (E. coli thiM TPP aptamer); experiment: Luciferase reporter with TPPm riboswitch in HEK 293 cells; format: cell-based, human; details: FIG. 1
Description: as §1, §2, §3

riboswitch 15D10 [3] = experiment: Luciferase reporter with 15D10 riboswitch (Luci-15D10) in HEK 293 cells; format: cell-based, human; details: HEK 293 cells; for effect on luciferase expression from Luci-15D10: FIG. 9A, 9C; for fold induction at 50 µM: Homo sapiens, HEK293, 24 h, read-out: Fold increase in riboswitch 15D10-regulated luciferase expression, HEK
Summary of the method: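 Cells transfected with riboswitch-luciferase plasmid; 4 h later medium replaced with TPP or thiamine analogs (fursultiamine, prosultiamine, bisbentiamine, beclotiamine, sulbutiamine) as inducers.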

riboswitch 15D10 [4] = experiment: Luciferase reporter with 15D10 riboswitch (Luci-15D10) in AML12 cells; format: cell-based, mouse; details: for relative potency in inducing luciferase expression: AML 12 cells, compared with fursultiamine or within groups; for fold induction at 50 µM: Mus musculus, AML12, 24 h, AML12 cells, read-out: Fold increase in riboswitch 15D10-regulated luciferase expression, AML
riboswitch 15D10 [5] = experiment: Luci-15D10 luciferase reporter in ARPE-19 cells; format: cell-based, human; details: FIG. 9E
[6] = system: luciferase expression in HEK 293 cells; experiment: Screen of aptamer libraries A1-A3 for gene regulation activity with fursultiamine; format: cell-based, human; details: 50 μM fursultiamine, FIG. 4A
Protocol: Three aptamer libraries A1, A2 and A3, were generated by randomizing nucleotides at 6 positions in, or adjacent to, regions J4-5, J2-4 and J3-2, respectively (see FIG. 3). Single bacterial colonies were picked and plasmids containing riboswitch constructs were screened in HEK 293 cells for improved gene regulation activity in response to 50 μM fursultiamine as compared to riboswitch 14G4. […] These riboswitches comprising re-engineered aptamer sequences also lead to significant enhancements of target gene expression in other cells types, including alpha mouse liver 12 (AML12), C2C12 (murine myoblast cell line), and adult retinal pigment epithelial cell line-19 (ARPE-19) (see FIG. 4B).

CC(=C(CCOC(=O)C(C)C)SSC(CCOC(=O)C(C)C)=C(C)N(C=O)Cc1cnc(C)nc1N)N(C=O)Cc1cnc(C)nc1N (stereo in doubt) [sulbutiamine]
effect on luciferase expression, riboswitch TPPz [1]: weak or no effects on luciferase expression | effect on luciferase expression, riboswitch TPPm [2]: weak or no effects on luciferase expression

C/C(=C(\CCO)SCOC(=O)C(C)(C)C)N(C=O)Cc1cnc(C)nc1N [Compound M10, (Z)-((2-(N-((4-Amino-2-methylpyrimidin-5-yl)methyl)formamido)-5-hydroxypent-2-en-3-yl)thio)methyl pivalate]
effect on luciferase expression from Luci-15D10 (riboswitch 15D10 [3]): increased | relative potency in inducing luciferase expression (riboswitch 15D10 [4]): more potent than fursultiamine | activity in increasing riboswitch 15D10-regulated luciferase expression (riboswitch 15D10 [5]): equivalent potency to fursultaimine

C/C(=C(\CCO)SCOC(=O)C12CC3CC(CC(C3)C1)C2)N(C=O)Cc1cnc(C)nc1N [Compound M19, (((Z)-2-(N-((4-Amino-2-methylpyrimidin-5-yl)methyl)formamido)-5-hydroxypent-2-en-3-yl)thio)methyl (3r,5r,7r)-adamantane-1-carboxylate]
fold increase in luciferase expression (riboswitch 15D10 [3]; 12.5 μM): 168.7 fold | effect on luciferase expression from Luci-15D10 (riboswitch 15D10 [3]): increased | relative potency in inducing luciferase expression (riboswitch 15D10 [3]; compared with fursultiamine or within Formula V/VI groups): more potent | fold induction at 50 µM (riboswitch 15D10 [3]; Table 2): 676 | relative potency in inducing luciferase expression (riboswitch 15D10 [4]): more potent than fursultiamine | fold induction at 50 µM (riboswitch 15D10 [4]; Table 2): 330 | activity in increasing riboswitch 15D10-regulated luciferase expression (riboswitch 15D10 [5]): equivalent potency to fursultaimine

C/C(=C(\CCO)SCOC(=O)c1ccccc1)N(C=O)Cc1cnc(C)nc1N [Compound M21, (Z)-((2-(N-((4-Amino-2-methylpyrimidin-5-yl)methyl)formamido)-5-hydroxypent-2-en-3-yl)thio)methyl benzoate]
effect on luciferase expression from Luci-15D10 (riboswitch 15D10 [3]): increased | fold induction at 50 µM (riboswitch 15D10 [3]; Table 2): 618 | relative potency in inducing luciferase expression (riboswitch 15D10 [4]): more potent than fursultiamine | fold induction at 50 µM (riboswitch 15D10 [4]; Table 2): 229 | activity in increasing riboswitch 15D10-regulated luciferase expression (riboswitch 15D10 [5]): equivalent potency to fursultaimine

C/C(=C(\CCO)SC(=O)c1ccccc1Oc1ccc(N2CCCC2=O)cc1)N(C=O)Cc1cnc(C)nc1N [Compound M155, (Z)—S-(2-(N-((4-amino-2-methylpyrimidin-5-yl)methyl)formamido)-5-hydroxypent-2-en-3-yl) 2-(4-(2-oxopyrrolidin-1-yl)phenoxy)benzothioate]
fold induction at 50 µM (riboswitch 15D10 [3]; Table 3): 7.71 | fold induction at 50 µM (riboswitch 15D10 [4]; Table 3): 117

C/C(=C(\CCO)SC(=O)c1ccc(C(C)(C)C)cc1Oc1cccc(C(C)(C)C)c1)N(C=O)Cc1cnc(C)nc1N [Compound M156, (Z)—S-(2-(N-((4-amino-2-methylpyrimidin-5-yl)methyl)formamido)-5-hydroxypent-2-en-3-yl) 4-(tert-butyl)-2-(3-(tert-butyl)phenoxy)benzothioate]
fold induction at 50 µM (riboswitch 15D10 [3]; Table 3): 0.06 | fold induction at 50 µM (riboswitch 15D10 [4]; Table 3): 10.1

C/C(=C(\CCO)SC(=O)c1ccccc1Oc1cccc2ccccc12)N(C=O)Cc1cnc(C)nc1N [Compound M157, (Z)—S-(2-(N-((4-amino-2-methylpyrimidin-5-yl)methyl)formamido)-5-hydroxypent-2-en-3-yl) 2-(naphthalen-1-yloxy)benzothioate]
fold induction at 50 µM (riboswitch 15D10 [3]; Table 3): 118 | fold induction at 50 µM (riboswitch 15D10 [4]; Table 3): 316

C/C(=C(\CCO)SC(=O)c1cc(Cl)ccc1Oc1ccccc1Cl)N(C=O)Cc1cnc(C)nc1N [Compound M158, (Z)—S-(2-(N-((4-amino-2-methylpyrimidin-5-yl)methyl)formamido)-5-hydroxypent-2-en-3-yl) 5-chloro-2-(2-chlorophenoxy)benzothioate]
fold induction at 50 µM (riboswitch 15D10 [3]; Table 3): 96.9 | fold induction at 50 µM (riboswitch 15D10 [4]; Table 3): 235

C/C(=C(\CCO)SC(=O)c1cc(Cl)ccc1Oc1ccccc1Br)N(C=O)Cc1cnc(C)nc1N [Compound M159, (Z)—S-(2-(N-((4-amino-2-methylpyrimidin-5-yl)methyl)formamido)-5-hydroxypent-2-en-3-yl) 2-(2-bromophenoxy)-5-chlorobenzothioate]
fold induction at 50 µM (riboswitch 15D10 [3]; Table 3): 85.5 | fold induction at 50 µM (riboswitch 15D10 [4]; Table 3): 206

C/C(=C(\CCO)SC(=O)c1c(F)cccc1Oc1ccccc1Br)N(C=O)Cc1cnc(C)nc1N [Compound M160, (Z)—S-(2-(N-((4-amino-2-methylpyrimidin-5-yl)methyl)formamido)-5-hydroxypent-2-en-3-yl) 2-(2-bromophenoxy)-6-fluorobenzothioate]
fold induction at 50 µM (riboswitch 15D10 [3]; Table 3): 79.5 | fold induction at 50 µM (riboswitch 15D10 [4]; Table 3): 131

Cc1ncc(C[n+]2csc(CCCl)c2C)c(N)n1.Cl.[Cl-] [beclotiamine hydrochloride]
effect on luciferase expression, riboswitch TPPz [1]: weak or no effects on luciferase expression | effect on luciferase expression, riboswitch TPPm [2]: weak or no effects on luciferase expression

C/C(=C(\CCOC(=O)c1ccccc1)SS/C(CCOC(=O)c1ccccc1)=C(/C)N(C=O)Cc1cnc(C)nc1N)N(C=O)Cc1cnc(C)nc1N [bisbentiamine]
effect on luciferase expression, riboswitch TPPz [1]: weak or no effects on luciferase expression | effect on luciferase expression, riboswitch TPPm [2]: weak or no effects on luciferase expression

B1: 1D10: re-engineered aptamer, encoding sequence SEQ ID NO:8 (nucleic acid)
DNA: ACAGGGGTCCGGCCTTTTCATTTGGCGCCGGTGAGATTATACCCTTTGAACCTGTTTACGGATAATGCCGCCGCAGGGAGT
modifications: expressed or natural sequence
fursultiamine-dependent induction compared to parent construct 14G4 [6]: increase in fursultiamine-dependent induction

B2: 3H4: re-engineered aptamer, encoding sequence SEQ ID NO:9 (nucleic acid)
DNA: B1 DNA with T37G, T38C, T40C, T57C, C72T
modifications: expressed or natural sequence
fursultiamine-dependent induction compared to parent construct 14G4 [6]: increase in fursultiamine-dependent induction

B3: 6B4: re-engineered aptamer, encoding sequence SEQ ID NO:14 (nucleic acid)
DNA: B1 DNA with T37G, T38C, T40C, T47G, G48T, A49G
modifications: expressed or natural sequence
fursultiamine-dependent induction compared to parent construct 14G4 [6]: increase in fursultiamine-dependent induction

B4: 6G12: re-engineered aptamer, encoding sequence SEQ ID NO:17 (nucleic acid)
DNA: B1 DNA with T37G, T38C, T40C, A49G
modifications: expressed or natural sequence
fursultiamine-dependent induction compared to parent construct 14G4 [6]: increase in fursultiamine-dependent induction

B5: 6C4: re-engineered aptamer, encoding sequence SEQ ID NO:16 (nucleic acid)
DNA: B1 DNA with A3G, T37G, T38C, T40C, T47C
modifications: expressed or natural sequence
fursultiamine-dependent induction compared to parent construct 14G4 [6]: increase in fursultiamine-dependent induction

B6: 4H2: re-engineered aptamer, encoding sequence SEQ ID NO:15 (nucleic acid)
DNA: B1 DNA with T37G, T38C, T40C, T47C, A49G
modifications: expressed or natural sequence
fursultiamine-dependent induction compared to parent construct 14G4 [6]: increase in fursultiamine-dependent induction
